Reference: the NIST ThermoML archive (doi:10.1021/je0301040)
Numbers after ± are expanded uncertainties.

Assay: xn = mol fraction of the nth substance listed

FC(Cl)(Cl)Cl [trichlorofluoromethane] + FC(F)Cl
Conditions	mass density [kg/m3]
424.96 K, 293.85 kPa, Fluid (supercritical or subcritical phases), Burnett expansion method, x1 = 0.832	11.0367 ± 0.22
424.96 K, 373.9 kPa, Fluid (supercritical or subcritical phases), Burnett expansion method, x1 = 0.832	14.1459 ± 0.28
424.96 K, 418.92 kPa, Fluid (supercritical or subcritical phases), Burnett expansion method, x1 = 0.832	15.9304 ± 0.32
424.96 K, 445.3 kPa, Gas, isochoric method, x1 = 0.832	131.354 ± 0.093
424.96 K, 567.37 kPa, Fluid (supercritical or subcritical phases), Burnett expansion method, x1 = 0.832	21.9341 ± 0.44
424.96 K, 662.1 kPa, Gas, isochoric method, x1 = 0.832	200.808 ± 0.14
424.96 K, 663.7 kPa, Gas, isochoric method, x1 = 0.832	200.808 ± 0.14
424.96 K, 715.19 kPa, Fluid (supercritical or subcritical phases), Burnett expansion method, x1 = 0.832	28.1109 ± 0.56
424.96 K, 797.38 kPa, Fluid (supercritical or subcritical phases), Burnett expansion method, x1 = 0.832	31.6606 ± 0.63
424.96 K, 967.2 kPa, Gas, isochoric method, x1 = 0.832	303.998 ± 0.094
424.96 K, 969 kPa, Gas, isochoric method, x1 = 0.832	303.998 ± 0.094
424.96 K, 1086 kPa, Fluid (supercritical or subcritical phases), Burnett expansion method, x1 = 0.832	44.6324 ± 0.9
424.96 K, 1298.4 kPa, Gas, isochoric method, x1 = 0.832	426.053 ± 0.33
424.96 K, 1299.4 kPa, Gas, isochoric method, x1 = 0.832	426.053 ± 0.33
424.96 K, 1617.2 kPa, Gas, isochoric method, x1 = 0.832	556.221 ± 0.17
424.96 K, 1619.2 kPa, Gas, isochoric method, x1 = 0.832	556.221 ± 0.17
424.96 K, 3854.3 kPa, Liquid, Pycnometric method, x1 = 0.8336	1012.94 ± 3.5
424.96 K, 4517.9 kPa, Liquid, Pycnometric method, x1 = 0.8336	1028.76 ± 3.4
424.96 K, 7331.5 kPa, Liquid, Pycnometric method, x1 = 0.8336	1077.17 ± 2.6
424.96 K, 20744 kPa, Liquid, Pycnometric method, x1 = 0.8336	1193.05 ± 1.9
424.96 K, 49662 kPa, Liquid, Pycnometric method, x1 = 0.8336	1310.9 ± 1.5
424.96 K, 65344 kPa, Liquid, Pycnometric method, x1 = 0.8336	1352.8 ± 1.5
424.97 K, 150.03 kPa, Fluid (supercritical or subcritical phases), Burnett expansion method, x1 = 0.832	5.5536 ± 0.11
424.97 K, 153.48 kPa, Fluid (supercritical or subcritical phases), Burnett expansion method, x1 = 0.832	5.6866 ± 0.11
424.97 K, 215.05 kPa, Fluid (supercritical or subcritical phases), Burnett expansion method, x1 = 0.832	8.0157 ± 0.16
424.97 K, 300.89 kPa, Fluid (supercritical or subcritical phases), Burnett expansion method, x1 = 0.832	11.3011 ± 0.23
424.97 K, 409.41 kPa, Fluid (supercritical or subcritical phases), Burnett expansion method, x1 = 0.832	15.5588 ± 0.31
424.97 K, 444.8 kPa, Gas, isochoric method, x1 = 0.832	131.354 ± 0.093
424.97 K, 518.76 kPa, Fluid (supercritical or subcritical phases), Burnett expansion method, x1 = 0.832	19.9414 ± 0.4
424.97 K, 580.12 kPa, Fluid (supercritical or subcritical phases), Burnett expansion method, x1 = 0.832	22.4579 ± 0.45
424.97 K, 977.19 kPa, Fluid (supercritical or subcritical phases), Burnett expansion method, x1 = 0.832	39.6298 ± 0.8
424.97 K, 1317.5 kPa, Fluid (supercritical or subcritical phases), Burnett expansion method, x1 = 0.832	55.8677 ± 1.1
424.97 K, 3592.7 kPa, Liquid, Pycnometric method, x1 = 0.8336	1005.84 ± 3.6
424.97 K, 4190.2 kPa, Liquid, Pycnometric method, x1 = 0.8336	1021.29 ± 3.4
424.97 K, 4853 kPa, Liquid, Pycnometric method, x1 = 0.8336	1035.91 ± 3
424.97 K, 5457.4 kPa, Liquid, Pycnometric method, x1 = 0.8336	1047.58 ± 3
424.97 K, 6169.4 kPa, Liquid, Pycnometric method, x1 = 0.8336	1059.78 ± 3
424.97 K, 14203 kPa, Liquid, Pycnometric method, x1 = 0.8336	1148.26 ± 2.2
424.97 K, 27900 kPa, Liquid, Pycnometric method, x1 = 0.8336	1230.65 ± 1.7
424.97 K, 35700 kPa, Liquid, Pycnometric method, x1 = 0.8336	1263.74 ± 1.6
424.97 K, 42738 kPa, Liquid, Pycnometric method, x1 = 0.8336	1289.02 ± 1.5
424.97 K, 56282 kPa, Liquid, Pycnometric method, x1 = 0.8336	1329.7 ± 1.5
424.97 K, 61980 kPa, Liquid, Pycnometric method, x1 = 0.8336	1344.58 ± 1.4
429.96 K, 2000.6 kPa, Gas, isochoric method, x1 = 0.832	715.595 ± 0.22
429.96 K, 2000.8 kPa, Gas, isochoric method, x1 = 0.832	715.595 ± 0.66
429.96 K, 2002.4 kPa, Gas, isochoric method, x1 = 0.832	715.595 ± 0.22
474.95 K, 4750 kPa, Fluid (supercritical or subcritical phases), Burnett expansion method, x1 = 0.832	271.514 ± 5.5
474.97 K, 1108 kPa, Fluid (supercritical or subcritical phases), Burnett expansion method, x1 = 0.832	39.0371 ± 0.78
474.98 K, 322.47 kPa, Fluid (supercritical or subcritical phases), Burnett expansion method, x1 = 0.832	10.7116 ± 0.21
474.98 K, 601.7 kPa, Fluid (supercritical or subcritical phases), Burnett expansion method, x1 = 0.832	20.4396 ± 0.41
474.98 K, 1965.5 kPa, Fluid (supercritical or subcritical phases), Burnett expansion method, x1 = 0.832	74.5021 ± 1.5
474.98 K, 1995.2 kPa, Fluid (supercritical or subcritical phases), Burnett expansion method, x1 = 0.832	75.9597 ± 1.5
474.98 K, 3255.8 kPa, Fluid (supercritical or subcritical phases), Burnett expansion method, x1 = 0.832	142.18 ± 2.9
474.98 K, 3296.6 kPa, Fluid (supercritical or subcritical phases), Burnett expansion method, x1 = 0.832	144.503 ± 2.9
474.98 K, 4786.8 kPa, Fluid (supercritical or subcritical phases), Burnett expansion method, x1 = 0.832	274.877 ± 5.5
474.98 K, 5920.1 kPa, Fluid (supercritical or subcritical phases), Burnett expansion method, x1 = 0.832	522.524 ± 11
474.98 K, 13635 kPa, Fluid (supercritical or subcritical phases), Burnett expansion method, x1 = 0.832	993.788 ± 20
474.99 K, 590.67 kPa, Fluid (supercritical or subcritical phases), Burnett expansion method, x1 = 0.832	20.1833 ± 0.4
474.99 K, 1081.5 kPa, Fluid (supercritical or subcritical phases), Burnett expansion method, x1 = 0.832	38.4124 ± 0.77
474.99 K, 1126.1 kPa, Fluid (supercritical or subcritical phases), Burnett expansion method, x1 = 0.832	39.9341 ± 0.8
474.99 K, 1933.1 kPa, Fluid (supercritical or subcritical phases), Burnett expansion method, x1 = 0.832	73.0924 ± 1.5
474.99 K, 3211.7 kPa, Fluid (supercritical or subcritical phases), Burnett expansion method, x1 = 0.832	139.089 ± 2.8
474.99 K, 4708.1 kPa, Fluid (supercritical or subcritical phases), Burnett expansion method, x1 = 0.832	264.786 ± 5.4
475 K, 5875.1 kPa, Fluid (supercritical or subcritical phases), Burnett expansion method, x1 = 0.832	503.942 ± 11
475 K, 5905.8 kPa, Fluid (supercritical or subcritical phases), Burnett expansion method, x1 = 0.832	518.038 ± 11
475 K, 12413 kPa, Fluid (supercritical or subcritical phases), Burnett expansion method, x1 = 0.832	958.868 ± 19
475.01 K, 13484 kPa, Fluid (supercritical or subcritical phases), Burnett expansion method, x1 = 0.832	988.822 ± 20
